From patent publication US20050192279A1, “Pyridazinones as antagonists of alpha4 integrins” (priority 2004, published 2005)
Where two headings read alike, the source gives them in different places.

Experiments:
[1] = molecular target: T1, α4β1 (Homo sapiens, UniProt P05556+P13612); test: Ramos Cell Adhesion Assay (α4β1 Mediated Adhesion/VCAM-1); format: cell-based
T1 construct: Ramos Cell Adhesion Assay (α4β1 Mediated Adhesion/VCAM-1); endogenous in cells; host or cells: Ramos cells
Procedure, shortened: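 Plates coated overnight at 4° C with recombinant hVCAM-1 at 4.0 μg/mL, pH 9.0, then blocked in PBS/1% BSA. Calcein AM-labeled Ramos cells added with compounds and left to adhere 1 h at room temperature; after washing, cells lysed in 1 M Tris pH 8.0/1% SDS.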

[2] = molecular target: T2, human α4β7 integrin (Homo sapiens, UniProt P13612+P26010); test: α4β7-K562 Cell Adhesion Assay (α4β7 Mediated Adhesion/MAdCAM-1); format: cell-based
T2 construct: expressed in transfected cells; host or cells: K562 cells, stably transfected
T2 sequence (P13612 34-1032): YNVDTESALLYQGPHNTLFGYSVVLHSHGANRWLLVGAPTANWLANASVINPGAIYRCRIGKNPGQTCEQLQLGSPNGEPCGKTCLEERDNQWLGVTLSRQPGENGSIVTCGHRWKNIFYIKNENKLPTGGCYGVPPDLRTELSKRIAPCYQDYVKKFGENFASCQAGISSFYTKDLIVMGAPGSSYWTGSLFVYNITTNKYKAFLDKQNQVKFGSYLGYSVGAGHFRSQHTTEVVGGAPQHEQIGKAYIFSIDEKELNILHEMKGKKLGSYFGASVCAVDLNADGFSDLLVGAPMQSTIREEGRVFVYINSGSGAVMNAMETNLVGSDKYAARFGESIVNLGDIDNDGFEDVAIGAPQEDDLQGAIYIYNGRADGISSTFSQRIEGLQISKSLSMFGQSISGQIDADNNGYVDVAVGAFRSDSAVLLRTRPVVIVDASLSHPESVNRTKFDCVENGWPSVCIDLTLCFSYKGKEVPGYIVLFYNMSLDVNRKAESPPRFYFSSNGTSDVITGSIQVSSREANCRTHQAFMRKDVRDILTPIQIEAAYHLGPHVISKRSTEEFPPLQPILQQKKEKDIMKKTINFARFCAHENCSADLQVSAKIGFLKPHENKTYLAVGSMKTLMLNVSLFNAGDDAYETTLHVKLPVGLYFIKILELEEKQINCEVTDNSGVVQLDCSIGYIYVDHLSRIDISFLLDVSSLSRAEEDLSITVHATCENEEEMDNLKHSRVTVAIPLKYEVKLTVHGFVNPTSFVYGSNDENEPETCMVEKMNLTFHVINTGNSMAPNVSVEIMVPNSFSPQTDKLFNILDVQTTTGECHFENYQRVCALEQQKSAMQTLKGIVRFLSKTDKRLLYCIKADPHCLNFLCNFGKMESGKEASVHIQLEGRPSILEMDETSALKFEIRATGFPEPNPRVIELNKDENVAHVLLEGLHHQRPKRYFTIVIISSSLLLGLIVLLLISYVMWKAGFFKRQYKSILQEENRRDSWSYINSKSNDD
T2 sequence (P26010 20-798): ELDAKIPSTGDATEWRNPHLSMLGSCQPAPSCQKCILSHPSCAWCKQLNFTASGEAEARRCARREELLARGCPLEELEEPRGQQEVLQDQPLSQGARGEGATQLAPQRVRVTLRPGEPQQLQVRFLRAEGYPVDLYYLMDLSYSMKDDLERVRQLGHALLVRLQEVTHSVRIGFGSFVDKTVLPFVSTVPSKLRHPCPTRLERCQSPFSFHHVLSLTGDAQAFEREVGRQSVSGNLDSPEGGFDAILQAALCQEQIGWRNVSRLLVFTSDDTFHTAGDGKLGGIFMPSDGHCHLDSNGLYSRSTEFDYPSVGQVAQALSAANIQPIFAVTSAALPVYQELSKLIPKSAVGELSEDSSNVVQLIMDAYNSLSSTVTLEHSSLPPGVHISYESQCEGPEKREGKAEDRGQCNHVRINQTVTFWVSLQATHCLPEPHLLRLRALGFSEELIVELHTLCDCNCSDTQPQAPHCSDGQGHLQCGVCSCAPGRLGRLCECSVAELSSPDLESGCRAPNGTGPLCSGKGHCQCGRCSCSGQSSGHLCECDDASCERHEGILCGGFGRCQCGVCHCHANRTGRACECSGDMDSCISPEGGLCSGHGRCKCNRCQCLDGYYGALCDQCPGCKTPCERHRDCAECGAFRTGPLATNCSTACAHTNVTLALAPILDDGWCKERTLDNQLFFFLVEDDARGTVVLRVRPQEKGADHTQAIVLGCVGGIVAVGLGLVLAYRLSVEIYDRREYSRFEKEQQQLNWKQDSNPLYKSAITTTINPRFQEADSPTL
Procedure, shortened: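 Anti-FLAG plates coated 1 h at 4° C with FLAG-hMAdCAM-1 in PBS pH 7.4, 1% BSA, 1 mM Mn2+. Stably transfected K562 cells expressing human α4β7, labelled with CFDA-SE, adhered with compound 1 h at room temperature. After four washes, bound cells lysed in 0.1 M NaOH for fluorescence read-out.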

[3] = Ramos cell adhesion to hVCAM-1, read-out: α4β1 IC50
[4] = α4β7-K562 cell adhesion to hMAdCAM-1, read-out: α4β7 IC50

T1 sequence (P05556 21-798, one chain of several): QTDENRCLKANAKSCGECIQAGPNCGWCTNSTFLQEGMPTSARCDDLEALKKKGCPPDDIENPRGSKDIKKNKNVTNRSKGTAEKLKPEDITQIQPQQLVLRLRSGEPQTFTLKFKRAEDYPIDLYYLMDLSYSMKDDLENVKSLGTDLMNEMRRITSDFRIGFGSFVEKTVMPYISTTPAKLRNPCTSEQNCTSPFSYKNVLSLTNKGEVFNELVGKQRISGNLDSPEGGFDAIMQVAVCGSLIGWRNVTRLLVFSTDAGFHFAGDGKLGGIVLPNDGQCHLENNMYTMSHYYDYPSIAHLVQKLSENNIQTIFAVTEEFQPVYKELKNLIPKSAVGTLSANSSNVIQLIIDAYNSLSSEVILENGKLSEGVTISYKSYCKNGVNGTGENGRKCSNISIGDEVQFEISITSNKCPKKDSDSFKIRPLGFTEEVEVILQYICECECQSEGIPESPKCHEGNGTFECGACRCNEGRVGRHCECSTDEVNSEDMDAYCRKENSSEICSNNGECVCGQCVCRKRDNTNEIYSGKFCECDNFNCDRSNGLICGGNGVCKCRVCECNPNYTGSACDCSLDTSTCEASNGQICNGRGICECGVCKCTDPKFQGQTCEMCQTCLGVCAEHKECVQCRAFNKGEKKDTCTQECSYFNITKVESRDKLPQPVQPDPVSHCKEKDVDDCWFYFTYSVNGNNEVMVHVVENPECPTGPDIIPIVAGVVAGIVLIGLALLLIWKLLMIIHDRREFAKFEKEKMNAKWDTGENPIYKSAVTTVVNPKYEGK

Structure (SMILES) | IC50 [1, 3] [nM] | IC50 [2, 4] [nM] | IC50 ([1]; α4β1 IC50, Ramos cell adhesion to hVCAM-1) [nM] | IC50 ([2]; α4β7 IC50, α4β7-K562 cell adhesion to hMAdCAM-1) [nM]
CN[C@H](C(=O)N[C@@H](Cc1ccc(-c2c(OC)cnn(CCN3CCOCC3)c2=O)cc1)C(=O)O)[C@@H](C)OCc1ccccc1 [Cpd 128] | 1490 | 138 |  | 
COc1cnn(C)c(=O)c1-c1ccc(C[C@H](NC(=O)[C@H](O)C(C)C)C(=O)O)cc1 [Cpd 129] | > 1000 | 141 |  | 
COc1ccc2cc(C(=O)N[C@@H](Cc3ccc(-c4c(OC)cnn(C)c4=O)cc3)C(=O)O)c(=O)oc2c1 [Cpd 130] | > 1000 | 147 |  | 
O=C(N[C@@H](Cc1ccc(-c2c(-n3nccc3-c3cccs3)cnn(CCO)c2=O)cc1)C(=O)O)c1c(Cl)cccc1Cl [Cpd 131, (S)-2-(2,6-Dichloro-benzoylamino)-3-{4-[2-(2-hydroxy-ethyl)-3-oxo-5-(5-thiophen-2-yl-pyrazol-1-yl)-2,3-di hydro-pyridazin-4-yl]-phenyl}-propionic acid] | > 5000 | 152 |  | 
COc1cnn(C)c(=O)c1-c1ccc(C[C@H](NC(=O)C2(c3ccc(F)cc3)CCCC2)C(=O)O)cc1 [Cpd 132] | > 5000 | 152 |  | 
COc1cnn(C)c(=O)c1-c1ccc(CC(NC(=O)C2(C(=O)NC(Cc3ccc(-c4c(OC)cnn(C)c4=O)cc3)C(=O)O)CC2)C(=O)O)cc1 (stereo not shown) [Cpd 133] | 1280 | 10 |  | 
COc1cnn(C)c(=O)c1-c1ccc(C[C@H](NC(=O)C23CCC(CC2)CN3C)C(=O)O)cc1 [Cpd 135] | > 1000 | 165 |  | 
COc1cnn(C)c(=O)c1-c1ccc(C[C@H](NC(=O)C2C(C)(C)C2(C)C)C(=O)O)cc1 [Cpd 136, (S)-3-[4-(5-Methoxy-2-methyl-3-oxo-2,3-dihydro-pyridazin-4-yl)-phenyl]-2-[(2,2,3,3-tetramethyl-cyclopropanecarbonyl)-amino]-propionic acid] | 1160 | 179 |  | 
COc1cnn(C)c(=O)c1-c1ccc(C[C@H](NC(=O)c2ccc(C(=O)O)cc2)C(=O)O)cc1 [Cpd 137] | 962 | 200 |  | 
COc1cnn(C)c(=O)c1-c1ccc(C[C@H](NC(=O)c2c(C)cc(C)nc2N)C(=O)O)cc1 [Cpd 138] | 508 | 204 |  | 
COc1cnn(C)c(=O)c1-c1ccc(C[C@H](NC(=O)C23CCC(CC2)CN3C(=O)CCC2CCNCC2)C(=O)O)cc1 [Cpd 139] | 319 | 228 |  | 
CCOc1cnn(C(C)(C)C)c(=O)c1-c1ccc(C[C@H](NC(=O)c2c(Cl)cccc2Cl)C(=O)O)cc1 [Cpd 142] | > 1000 | 230 |  | 
COc1cnn(C)c(=O)c1-c1ccc(C[C@H](NC(=O)C(=O)C(C)C)C(=O)O)cc1 [Cpd 143] | > 1000 | 244 |  | 
COc1cnn(C)c(=O)c1-c1ccc(C[C@H](NC(=O)c2cnoc2C)C(=O)O)cc1 [Cpd 147] | > 5000 | 249 |  | 
Cn1ncc(-n2nccc2-c2cccs2)c(-c2ccc(C[C@H](NC(=O)c3c(Cl)cccc3Cl)C(=O)O)cc2)c1=O [Cpd 148] | > 5000 | 261 |  | 
CN(C)CCOc1cnn(C)c(=O)c1-c1ccc(C[C@H](NC(=O)c2c(Cl)cccc2Cl)C(=O)O)cc1 [Cpd 150] | 154 | 271 |  | 
Cn1ncc(CC(=O)O)c(-c2ccc(C[C@H](NC(=O)c3c(Cl)cccc3Cl)C(=O)O)cc2)c1=O [Cpd 152] | > 5000 | 282 |  | 
COc1cnn(C)c(=O)c1-c1ccc(CC(NC(=O)C(NC(C)C)C(C)C)C(=O)O)cc1 (stereo not shown) [Cpd 153, 2-(2-Isopropylamino-3-methyl-butyrylamino)-3-[4-(5-methoxy-2-methyl-3-oxo-2,3-dihydro-pyridazin-4-yl)-phenyl]-propionic acid] | 2050 | 295 |  | 

Structure (SMILES) | IC50 [1, 3] [nM] | IC50 [2, 4] [nM] | IC50 ([1]; α4β1 IC50, Ramos cell adhesion to hVCAM-1) [nM] | IC50 ([2]; α4β7 IC50, α4β7-K562 cell adhesion to hMAdCAM-1) [nM]
COc1cnn(CCN2CCOCC2)c(=O)c1-c1ccc(C[C@H](NC(=O)[C@@H](NC(=O)OC(C)(C)C)[C@@H](C)O)C(=O)O)cc1 [Cpd 154] | > 5000 | 330 |  | 
CN(C)c1cnn(C(C)(C)C)c(=O)c1-c1ccc(C[C@H](NC(=O)c2c(Cl)cccc2Cl)C(=O)O)cc1 [Cpd 155] | > 1000 | 332 |  | 
CNc1cnn(C)c(=O)c1-c1ccc(C[C@H](NC(=O)c2c(Cl)cccc2Cl)C(=O)O)cc1 [Cpd 156] | > 5000 | 339 |  | 
COc1cnn(C)c(=O)c1-c1ccc(C[C@H](NC(=O)CN(C)C(=O)OC(C)(C)C)C(=O)O)cc1 [Cpd 157] | > 5000 | 353 |  | 
COc1cnn(C)c(=O)c1-c1ccc(C[C@H](NC(=O)C(N)C(C)C)C(=O)O)cc1 (stereo partly shown) [Cpd 159] | > 5000 | 363 |  | 
CC(C)(C)n1ncc(-n2cncn2)c(-c2ccc(C[C@H](NC(=O)c3c(Cl)cccc3Cl)C(=O)O)cc2)c1=O [Cpd 160] | 611 | 364 |  | 
Cn1ncc(NCCCl)c(-c2ccc(C[C@H](NC(=O)c3c(Cl)cccc3Cl)C(=O)O)cc2)c1=O [Cpd 162] |  |  | > 5000 | 408
COc1cnn(C)c(=O)c1-c1ccc(C[C@H](NC(=O)c2cc(=O)[nH]c(=O)[nH]2)C(=O)O)cc1 [Cpd 163] | > 5000 | 429 |  | 
COc1cnn(C)c(=O)c1-c1ccc(C[C@H](NC(=O)C2CCN(C(=O)OCc3ccccc3)CC2)C(=O)O)cc1 [Cpd 164] | > 5000 | 457 |  | 
COc1cnn(CCN2CCOCC2)c(=O)c1-c1ccc(C[C@H](NC(=O)[C@H](NC(=O)OC(C)(C)C)[C@H](C)O)C(=O)O)cc1 [Cpd 167] | > 5000 | 480 |  | 
O=C(N[C@@H](Cc1ccc(-c2c(O)cn[nH]c2=O)cc1)C(=O)O)c1c(Cl)cccc1Cl [Cpd 168] | > 1000 | 490 |  | 
COc1cnn(C)c(=O)c1-c1ccc(C[C@H](NC(=O)c2ccc(CO)cc2)C(=O)O)cc1 [Cpd 170] | 2810 | 514 |  | 
COc1cnn(C)c(=O)c1-c1ccc(C[C@H](NC(=O)OCC(C)(C)C)C(=O)O)cc1 [Cpd 171] | > 5000 | 536 |  | 
COc1cnn(C)c(=O)c1-c1ccc(C[C@H](NC(=O)OCc2ccccc2)C(=O)O)cc1 [Cpd 172, (S)-2-Benzyloxycarbonylamino-3-[4-(5-methoxy-2-methyl-3-oxo-2,3-dihydro-pyridazin-4-yl)-phenyl]-propionic acid] | > 5000 | 570 |  | 
COc1cnn(C)c(=O)c1-c1ccc(C[C@H](NC(=O)CN(C)C)C(=O)O)cc1 [Cpd 173] | > 5000 | 575 |  | 
COc1cnn(C)c(=O)c1-c1ccc(C[C@H](NC(=O)OCC(C)C)C(=O)O)cc1 [Cpd 175] | > 5000 | 591 |  | 
COc1cnn(C)c(=O)c1-c1ccc(C[C@H](NC(=O)C2(NC(=O)OC(C)(C)C)CC2)C(=O)O)cc1 [Cpd 177] | > 5000 | 163 |  | 
